Data on two compounds can be found in patent publication US12568991B2, “Method for increasing the solubility and stability of organic compositions” (GLANBIA DAIRY NUTRITION LIMITED, priority 2017, dated 2026).

The format of series [1] is physicochemical. The following applies: pH 7. From the text:
Creatine Formulation: A solution of surfactants was made by combining soy lecithin with 48-98% acetone insolubility (3.1 to 9.9 g/100 g as in dispersion or 9.2 to 16.9 g/100 g as in powder) in water (pH 7.0), with maltodextrin MD040 (Maltrin®, Grain Processing Corporation, 4.9-10.2 g/100 g as in dispersion or 12.4-17.7 g/100 g as in powder). Then the micronized (200 Mesh size or 70-80 μm) creatine monohydrate (23.7-40.2 g/100 g as in dispersion or 65.2-79.3 g/100 g as in powder), along with Alpha cyclodextrin (Cavamax®, Wacker Chemie AG, 0-0.26 g/100 g as in dispersion or 0-0.4 g/100 g as in powder), was added to the above solution of surfactants. After premixing the dispersion, it was run through the homogenizer at 500 psi/34 bar, 1 pass. The dispersion thus formed was heated to a pasteurization temperature of 72° C., for 30 min. Finally, this dispersion was spray dried, with TInlet=220-230° C. and TOutlet=92-100° C. Creatine shelf stability was evaluated at pH 3.3-7.0.
For the shelf-stability study, the corresponding spray-dried powders produced from the slurry were used for determining the chemical stability of limited-solubility organic compounds either in a neutral pH (6.8-7.0) drink or an acidic pH (3.3-3.7) drink formula. For this determination, the limited-solubility organic compound-containing beverages were prepared at their respective pHs, using spray-dried powder. […]

The conditions of series [2]: individuals who have high cholesterol; cited from earlier work.

As to `CN(CC(=O)O)C(=N)N.O` [creatine monohydrate], in series [1], the “creatine degradation curve (y=% creatine levels, after (x) number of days)” value is given as “y=48.294e^−0.024x”.

Regarding `CN(CC(=O)O)C(=N)N` [creatine], the reduction of cholesterol result in series [2] is listed as “up to 15%”.
